Here are results for 23 compounds from patent publication US12516038B2, “Inhibitors of antigen presentation by HLA-DR” (Janssen Pharmaceutica NV, priority 2020, dated 2026).

The IC50 is the concentration needed to halve the response being measured. A lower IC50 goes with inhibition by little substance.

The structures appear in SMILES notation. Where only a bound is given, the exact number is not on record here.

Assay [1] relates to human peripheral blood CD4+ helper T cells. Description: Pan-CD4+ T cell activation (off-target assay). The format is cell-based. The conditions noted are these: anti-CD3/anti-CD28 stimulation, IL-2 production by ELISA. Summed up: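 Human peripheral blood CD4+ T cells, with no APCs present, were stimulated with plate-bound anti-CD3 (1 μg/mL coating) plus soluble anti-CD28 (1 μg/mL) in the presence of compound or vehicle for 24 h. IL-2 in the supernatant was quantified by ELISA.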
For orientation: In an ELISA, binding on a coated surface is turned into a signal by an enzyme label.

Assay [2] concerns HLA-DR4 restricted mouse T cell hybridoma line (DR4.CII.36.8) with HLA-DRB1*04:01-expressing Boleth cells. Description: HLA-DR4-restricted peptide-specific T cell-based assay (hybridoma assay). The conditions noted are these: 6 h, inhibition of IL-2 production, CII259-273 peptide presented by Boleth cells. An outline of the steps: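 Boleth cells (HLA-DRB1*04:01 B cell line) pre-incubated with compound 1 h at 37° C. in DMEM/1% FCS, then DR4.CII.36.8 mouse T cell hybridoma (CII259-273-specific) added for 6 h with CII259-273 peptide. Supernatant mouse IL-2 by AlphaLISA; IC50 by 4-PL fit of 8-point duplicate titrations.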

A further assay deals with HLA-DRB1*0401 (Homo sapiens (Human), UniProt P01903+P01911, A100K/A169T/DEL228-266/F76Y/I96L/K127E/L162R/M171V/N62H/P40V/Q125Y/R42H/S133A/S149N/S66Y/V115G/V209L/W38E). Description: HLA-DR4 HTRF assay. Type of assay: binding. To be noted: inhibition of loading of Alexa Fluor 647-labeled Cit-CII peptide onto HLA-DR4 (CLIP cleaved). An outline of the steps:
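HLA-DRB1*04:01 construct (α/β fused to human Fc, CLIP pre-cleaved by HRV3C overnight at 4° C) at 3 nM was preincubated 45 min with compound and 1 nM anti-Fc-Tb donor, then 40 nM Alexa647-Cit-CII1236-1249 peptide added. After 90 min at 37° C, the 665/620 nm HTRF ratio gave % inhibition; IC50 by nonlinear regression.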
A general note: In TR-FRET formats the signal depends on donor and acceptor labels being close together.

Take `Cc1c(O[C@@H](c2ccc(Cl)cc2)c2ccc(C(N)=O)nc2)ccc2c1OCCC2=O` (single isomer, unassigned) [Example 64b, (*S)-5-((4-chlorophenyl)((8-methyl-4-oxochroman-7-yl)oxy)methyl)picolinamide]: the IC50 was above 15 µM in assay [1] (Homo sapiens, T-cell, 24 h); 4.8 µM in assay [2] (Mus musculus, T-cell); 1.8 µM on HLA-DRB1*0401.
Turning to `Cc1c(O[C@@H](c2ccc(C(N)=O)cc2)c2cccc[n+]2[O-])ccc2c1OCCC2=O` (single isomer, unassigned) [Example 65b, (*S)-2-((4-carbamoylphenyl)((8-methyl-4-oxochroman-7-yl)oxy)methyl)pyridine 1-oxide], the IC50 stood at 15 µM in assay [1] (24 hrs), 2 µM in assay [2] and 28 µM at HLA-DRB1*0401.
On to `Cc1c(O[C@@H](c2ccc(F)cc2)c2ccc(C(N)=O)cc2)ccc2c1OCCC2=O` (single isomer, unassigned) [Example 66a, (*R)-4-((4-Fluorophenyl)((8-methyl-4-oxochroman-7-yl)oxy)methyl)benzamide], for which the half-inhibitory concentration (IC50) was determined as 4.7 µM in assay [1] (Homo sapiens, T-cell, 24 h); 7.8 µM in assay [2] (Mus musculus, T-cell); 2.7 µM at HLA-DRB1*0401.
Take `Cc1c(O[C@H](c2ccc(C(N)=O)cc2)c2cccc(F)c2)ccc2c1OCCC2=O` (single isomer, unassigned) [Example 67a, (*R)-4-((3-Fluorophenyl)((8-methyl-4-oxochroman-7-yl)oxy)methyl)benzamide]: the IC50 is 15 µM in assay [1] (Homo sapiens, T-cell, 24 h); 2.7 µM in assay [2] (Mus musculus, T-cell); 3.1 µM at HLA-DRB1*0401.
With `Cc1c(O[C@H](c2ccc(C(N)=O)cc2)c2ccccc2F)ccc2c1OCCC2=O` (single isomer, unassigned) [Example 68a, (*R)-4-((2-Fluorophenyl)((8-methyl-4-oxochroman-7-yl)oxy)methyl)benzamide], the IC50 in assay [1] (Homo sapiens, T-cell, 24 h) came to 4.7 µM; in assay [2] (Mus musculus, T-cell) it was 5.6 µM; against HLA-DRB1*0401, 1.5 µM.
In the case of `Cc1c(O[C@H](c2ccccc2)c2ccc(C(N)=O)cc2)ccc2c1OCCC2=O` (single isomer, unassigned) [Example 69a, (*R)-4-(((8-Methyl-4-oxochroman-7-yl)oxy)(phenyl)methyl)benzamide], the IC50 in assay [1] (Homo sapiens, T-cell, 24 h) was determined as 6.1 µM; in assay [2] (Mus musculus, T-cell), 2.2 µM; against HLA-DRB1*0401 it was 2.1 µM.
As to `Cc1c(O[C@H](c2ccccc2)c2ccc(C(=O)O)cc2)ccc2c1OCCC2=O` (single isomer, unassigned) [Example 70a, (*R)-4-(((8-methyl-4-oxochroman-7-yl)oxy)(phenyl)methyl)benzoic acid], the IC50 in assay [1] (Homo sapiens, T-cell, 24 h) amounted to 4.7 µM; in assay [2] (Mus musculus, T-cell), 7.1 µM; at HLA-DRB1*0401 it was 1.3 µM.
Regarding `Cc1c(O[C@@H](c2ccccc2)c2ccc(C(=O)O)cc2)ccc2c1OCCC2=O` (single isomer, unassigned) [Example 70b, (*S)-4-(((8-methyl-4-oxochroman-7-yl)oxy)(phenyl)methyl)benzoic acid], the IC50 was 9.9 µM in assay [1] (Homo sapiens, T-cell, 24 h); 4.8 µM in assay [2] (Mus musculus, T-cell); 1.5 µM against HLA-DRB1*0401.
For `Cc1c(O[C@H](c2ccc(C(N)=O)cc2)c2ccc(C(=O)O)cc2)ccc2c1OCCC2=O` (single isomer, unassigned) [Example 71a, (*R)-4-((4-carbamoylphenyl)((8-methyl-4-oxochroman-7-yl)oxy)methyl)benzoic acid], the IC50 in assay [1] (Homo sapiens, T-cell, 24 h) is above 15 µM; in assay [2] (Mus musculus, T-cell), 1.5 µM; at HLA-DRB1*0401, 1.6 µM.
On the same counts, the results for `Cc1c(O[C@@H](c2ccc(C(N)=O)cc2)c2ccc(C(=O)O)cc2)ccc2c1OCCC2=O` (single isomer, unassigned) [Example 71b, (*S)-4-((4-carbamoylphenyl)((8-methyl-4-oxochroman-7-yl)oxy)methyl)benzoic acid] are above 15 µM, 0.2 µM and 0.93 µM.
`CN(C)C(=O)c1ccc([C@@H](Oc2ccc3c(c2)OCCC3=O)c2ccncc2)cc1` (single isomer, unassigned) [Example 72a, (*R)—N,N-dimethyl-4-(((4-oxochroman-7-yl)oxy)(pyridin-4-yl)methyl)benzamide]: the IC50 in assay [1] (Homo sapiens, T-cell, 24 h) turned out to be 9.9 µM; in assay [2] (Mus musculus, T-cell) it was 6.3 µM; at HLA-DRB1*0401, 0.84 µM.
In the case of `CN(C)C(=O)c1ccc([C@H](Oc2ccc3c(c2)OCCC3=O)c2ccncc2)cc1` (single isomer, unassigned) [Example 72b, (*S)—N,N-dimethyl-4-(((4-oxochroman-7-yl)oxy)(pyridin-4-yl)methyl)benzamide], the IC50 in assay [1] (Homo sapiens, T-cell, 24 h) is above 15 µM; in assay [2] (Mus musculus, T-cell), 11 µM; against HLA-DRB1*0401, 0.69 µM.
Turning to `CCc1c(O[C@@H](c2ccncc2)c2ccc(C(N)=O)cc2)ccc2c1OCCC2=O` (single isomer, unassigned) [Example 73a, (*R)-4-(((8-ethyl-4-oxochroman-7-yl)oxy)(pyridin-4-yl)methyl)benzamide], the IC50 worked out at 8 µM in assay [1] (Homo sapiens, T-cell, 24 h); 0.11 µM in assay [2] (Mus musculus, T-cell); 0.54 µM on HLA-DRB1*0401.
For the compound `CCc1c(O[C@H](c2ccncc2)c2ccc(C(N)=O)cc2)ccc2c1OCCC2=O` (single isomer, unassigned) [Example 73b, (*S)-4-(((8-ethyl-4-oxochroman-7-yl)oxy)(pyridin-4-yl)methyl)benzamide], the IC50 in assay [1] (Homo sapiens, T-cell, 24 h) amounted to 15 µM; in assay [2] (Mus musculus, T-cell) it was 0.71 µM; on HLA-DRB1*0401, 0.6 µM.
Take `CCc1cc2c(cc1O[C@@H](c1ccncc1)c1ccc(C(N)=O)cc1)OCCC2=O` (single isomer, unassigned) [Example 74a, (*R)-4-(((6-ethyl-4-oxochroman-7-yl)oxy)(pyridin-4-yl)methyl)benzamide]: the IC50 was determined as 2.2 µM in assay [1] (Homo sapiens, T-cell, 24 h); 0.12 µM in assay [2] (Mus musculus, T-cell); 0.55 µM against HLA-DRB1*0401.
`CCc1cc2c(cc1O[C@H](c1ccncc1)c1ccc(C(N)=O)cc1)OCCC2=O` (single isomer, unassigned) [Example 74b, (*S)-4-(((6-ethyl-4-oxochroman-7-yl)oxy)(pyridin-4-yl)methyl)benzamide]: the IC50 came out at 15 µM in assay [1] (Homo sapiens, T-cell, 24 h); 1.9 µM in assay [2] (Mus musculus, T-cell); 0.92 µM against HLA-DRB1*0401.
Take `CC(C)c1c(O[C@@H](c2ccncc2)c2ccc(C(N)=O)cc2)ccc2c1OCCC2=O` (single isomer, unassigned) [Example 75a, (*R)-4-(((8-isopropyl-4-oxochroman-7-yl)oxy)(pyridin-4-yl)methyl)benzamide]: the IC50 is 4.7 µM in assay [1] (Homo sapiens, T-cell, 24 h); 0.062 µM in assay [2] (Mus musculus, T-cell); 0.6 µM at HLA-DRB1*0401.
Turning to `CC(C)c1c(O[C@H](c2ccncc2)c2ccc(C(N)=O)cc2)ccc2c1OCCC2=O` (single isomer, unassigned) [Example 75b, (*S)-4-(((8-isopropyl-4-oxochroman-7-yl)oxy)(pyridin-4-yl)methyl)benzamide], the IC50 worked out at 9.3 µM in assay [1] (Homo sapiens, T-cell, 24 h); 0.18 µM in assay [2] (Mus musculus, T-cell); 0.63 µM against HLA-DRB1*0401.
Turning to `CC(C)c1cc2c(cc1O[C@@H](c1ccncc1)c1ccc(C(N)=O)cc1)OCCC2=O` (single isomer, unassigned) [Example 76a, (*R)-4-(((6-isopropyl-4-oxochroman-7-yl)oxy)(pyridin-4-yl)methyl)benzamide], the 50% inhibitory concentration (IC50) in assay [1] (Homo sapiens, T-cell, 24 h) turned out to be 2.2 µM; in assay [2] (Mus musculus, T-cell) it was 0.32 µM; at HLA-DRB1*0401 it was 0.65 µM.
For the compound `CC(C)c1cc2c(cc1O[C@H](c1ccncc1)c1ccc(C(N)=O)cc1)OCCC2=O` (single isomer, unassigned) [Example 76b, (*S)-4-(((6-isopropyl-4-oxochroman-7-yl)oxy)(pyridin-4-yl)methyl)benzamide], the IC50 worked out at 15 µM in assay [1] (Homo sapiens, T-cell, 24 h); 3.1 µM in assay [2] (Mus musculus, T-cell); 1 µM at HLA-DRB1*0401.
For `COc1cc(O[C@@H](c2ccncc2)c2ccc(C(N)=O)cc2)cc2c1C(=O)CCO2` (single isomer, unassigned) [Example 77a, (*R)-4-(((5-methoxy-4-oxochroman-7-yl)oxy)(pyridin-4-yl)methyl)benzamide], in that order: above 15 µM, 9.1 µM and 1.7 µM.
As for `COc1cc(O[C@H](c2ccncc2)c2ccc(C(N)=O)cc2)cc2c1C(=O)CCO2` (single isomer, unassigned) [Example 77b, (*S)-4-(((5-methoxy-4-oxochroman-7-yl)oxy)(pyridin-4-yl)methyl)benzamide], the IC50 in assay [1] (Homo sapiens, T-cell, 24 h) was 9.9 µM; in assay [2] (Mus musculus, T-cell), 5.5 µM; against HLA-DRB1*0401, 1.5 µM.
On the same counts, the results for `N#Cc1c(O[C@@H](c2ccncc2)c2ccc(C(N)=O)cc2)ccc2c1OCCC2=O` (single isomer, unassigned) [Example 78a, (*R)-4-(((8-cyano-4-oxochroman-7-yl)oxy)(pyridin-4-yl)methyl)benzamide] are 9.9 µM, 2.3 µM and 0.47 µM.
